pIC50: −log10 of the molar value. “And” between values parts separate entries of the source, which are not always exact repeats. Equal values may be shown once.
Tests used:
rat [1] = experiment: Rat female fertility study; assay type: in vivo; conditions: female rat, 25, 100, or 200 mg/kg/d oral gavage
Procedure: In a rat female fertility study, animal groups were given 0, 25, 100, or 200 mg/kg/d oral gavage of Compound P3.1. No treatment-related clinical signs were observed. […] There were no macroscopic necropsy findings that indicated an effect of Compound P3.1 administration.

C57Bl/6J mice = experiment: Locomotor activity and contextual fear conditioning in C57Bl/6J mice; assay type: in vivo; conditions: 10 or 30 mg/kg/day, gavage, 5 days
Procedure: (§1) The exposure of both compounds was also evaluated in the plasma, brain, and eye. […] During the treatment period all animals were assessed for contextual fear conditioning and a subset of 7 animals per group was evaluated for locomotor activity. On Day 5, plasma, brain, and eye tissue were collected 30 minutes after dosing from 3 animals per treated group to measure concentrations of test item.

CYP1A2 = experiment: CYP induction in human hepatocytes, CYP1A2; assay type: in vitro ADME
conscious dogs = experiment: Cardiovascular study in beagle dogs; assay type: in vivo, dog
Procedure: The safety pharmacology assessment of Compound P3.1 included an in vitro hERG assay, neurofunctional and respiratory studies in rats, and a cardiovascular study in beagle dogs.
In a cardiovascular study conducted in 4 dogs, treatments were performed by oral gavage according to a crossover design after allowing a minimum washout period of 48 hours. In conscious dogs, Compound P3.1 at doses of 10 and 25 mg/kg had no effect on arterial blood pressure, heart rate, body temperature, cardiac conduction times, ventricular repolarization duration, QT variability, or ST segment.

[2] = test system: K562 erythroleukemic cells; experiment: cGMP in cultured K562 cells; assay type: cell-based; conditions: 16 hours
Procedure: Hydroxyurea was included as a comparator as it is currently the only FDA approved treatment for this disease (Charache et al., N Engl J Med., 332(20):1317-22. (1995)). One of the proposed mechanisms of action of HU in SCD is that it may generate NO and modulation of intracellular levels of the NO second messenger, cGMP, may represent an effective and cell-specific approach for amplifying intracellular NO-dependent signaling.
K562 cells were cultured at 37° C. in IMDM® to which the required concentrations of test items or dimethyl sulfoxide (DMSO; negative Control) had been added. Plated cells were maintained at 37° C. for 16 hours at the end of which the amount of cGMP was detected by enzyme immunoassay.

in vivo = conditions: rat
Procedure: (§2) In a 14-day repeat-dose toxicity study in rats, Compound P3.1 was orally administered (gavage) at doses of 0 (vehicle), 50, 200, and 400 mg/kg/day.

rat [3] = experiment: in vivo
Procedure: as §2

PDE1 = PDE1 inhibition assay; assay type: biochemical
Procedure: Reactions were initiated by addition of the cyclic nucleotide substrate, and reactions were allowed to proceed for 1 h at room temperature before being terminated through mixing with 20 μL (0.2 mg) yttrium silicate SPA beads (PerkinElmer).

[4] = Fourteen-day repeat-dose toxicity study in beagle dogs; assay type: in vivo, dog; conditions: beagle, in vivo, dog; for NOAEL at 14 days: both sexes, oral, males and females, 14-day; for Cmax / AUC(0-t): po; for AUC(0-t): read-out: AUC0-24
Procedure: (§3) In a GLP 14-day repeat-dose toxicity study in dogs, Compound P3.1 was orally administered at doses of 0, 10, 35, or 75 mg/kg/day. […] The no-observed-adverse-effect level (NOAEL) was considered to be 35 mg/kg/day in males and females.

dog = experiment: as above; assay type: in vivo
Procedure: as §3

[5] = Blood Brain Barrier penetration (brain-to-plasma distribution); assay type: in vivo; conditions: male CD mice, 10 mg/kg subcutaneous
Procedure: Male CD mice (20-24 g) were housed pair-wise with free access to food and water for an acclimatization period of 3-7 days before initiation of experiments. Prior to dosing the animals were fasted overnight. During testing, mice were kept in individual cages. The brain-to-plasma distribution was assessed 30 minutes and 2 hours after subcutaneous administration of the test compound at a dose of 10 mg/kg (n=3 at each time point). The dose volume was 10 ml/kg using appropriate vehicle to solubilize each test compound. At the time of sampling, animals were anesthetized with isoflurane and a systemic blood sample collected by cardiac puncture into vacutainers containing sodium heparin as anti-coagulant. The blood was centrifuged at 3500 rpm for 10 minutes at 4° C. to obtain plasma. Following decapitation, brains were dissected out and transferred to pre-weighed vessels followed by tissue weights determination. Plasma and brains were stored at −80° C. until quantitative bioanalysis by LC-MS/MS. Results are expressed as ng/ml for plasma and ng/g for brain samples.

[6] = Plasma, brain and eye exposure in C57Bl/6J mice; assay type: in vivo; conditions: for concentration at 30 min: male, C57Bl/6J, mouse, plasma, oral, gavage, Day 5, 30 minutes after dosing
Procedure: as §1

CYP2B6 = experiment: CYP induction in human hepatocytes, CYP2B6
[7] = female, 10 mg, females, 10 mg, Day 1
[8] = female, 10 mg, females, 10 mg, Day 14
[9] = female, 35 mg, females, 35 mg, Day 1
[10] = female, 35 mg, females, 35 mg, Day 14
[11] = female, 75 mg/kg/day, females, 75 mg, Day 1
[12] = female, 75 mg/kg/day, females, 75 mg, Day 14
[13] = male, 10 mg, males, 10 mg, Day 1
[14] = male, 10 mg, males, 10 mg, Day 14
[15] = male, 35 mg, males, 35 mg, Day 1
[16] = male, 35 mg, males, 35 mg, Day 14
[17] = male, 75 mg/kg/day, males, 75 mg, Day 1
[18] = male, 75 mg/kg/day, males, 75 mg, Day 14

With `C[C@@H]1CN(Cc2ncccn2)C[C@H]1c1cn2c(C3CCOCC3)ncc2c(=O)[nH]1` (single isomer, unassigned) [Compound P3.1] the early embryonic development (rat [1]) was “no adverse effect”, the “pre- or post-implantation loss” value (rat [1]) was “no effect” and the “locomotor activity or memory” value (C57Bl/6J mice) was “no effect”. For the same molecule, the “induction of CYP1A2” value (CYP1A2) was “no potential for induction”, the cardiovascular effects (conscious dogs; oral gavage 75 mg/kg) was “induced tachycardia as well as a slight, progressive and delayed decrease in blood pressure and shortened conduction times” and the “arterial blood pressure, heart rate, body temperature, conduction times, repolarization, QT variability, ST segment” value (conscious dogs; oral gavage 10 and 25 mg/kg) was “no effect”. The “cGMP concentration at 1 μM compared with 100 μM HU” value ([2]; 1 μM) was “approximately the same value elicited by 100 μM HU”, the cGMP level ([2]; 10 μM) was 12.61 pg/mg and the “effect on cGMP levels” value [2] was “dose-dependent and statistically significant increases in cGMP levels”. For the same molecule, the NOAEL at 14 days (in vivo; female) was 50 mg/kg/day and 50 mg/kg, the NOAEL at 14 days (in vivo; male) was 200 mg/kg/day and 200 mg/kg and the AUC(0-t) (in vivo; 400 mg/kg/day, plasma exposure (AUC0-24)) was > 354000 ng·h/mL. The “exposure relative to anticipated efficacious dose” value (rat [3]) was > 10 fold, the exposure vs dose (rat [3]) was “increased proportionally with dose” and the “findings at highest dose” value (rat [3]; 400 mg/kg/day) was “reductions in body weight, weight gain, and food intake, and premature deaths”. It also gave a pIC50 (PDE1) of 5.52, an NOAEL at 14 days ([4]; read-out: no-observed-adverse-effect level (NOAEL)) of 35 mg/kg/day and an NOAEL at 14 days ([4]; read-out: no-observed-adverse-effect-level (NOAEL)) of 35 mg/kg. For the same molecule, the Cmax [4, 7] was 1970 ng/mL, the AUC(0-t) [4, 7] was 24800 ng·h/mL and the Cmax [4, 8] was 3780 ng/mL. The AUC(0-t) [4, 8] was 25400 ng·h/mL, the Cmax [4, 9] was 5180 ng/mL and the AUC(0-t) [4, 9] was 66700 ng·h/mL. The Cmax [4, 10] was 10000 ng/mL, the AUC(0-t) [4, 10] was 87900 ng·h/mL and the Cmax [4, 11] was 13200 ng/mL. The AUC(0-t) [4, 11] was 152000 ng·h/mL, the Cmax [4, 12] was 22100 ng/mL and the AUC(0-t) [4, 12] was 224000 ng·h/mL. The Cmax [4, 13] was 2730 ng/mL, the AUC(0-t) [4, 13] was 29700 ng·h/mL and the Cmax [4, 14] was 3120 ng/mL. For the same molecule, the AUC(0-t) [4, 14] was 24100 ng·h/mL, the Cmax [4, 15] was 11200 ng/mL and the AUC(0-t) [4, 15] was 114000 ng·h/mL. For the same molecule, the Cmax [4, 16] was 13100 ng/mL, the AUC(0-t) [4, 16] was 98600 ng·h/mL and the Cmax [4, 17] was 11000 ng/mL. It also gave an AUC(0-t) [4, 17] of 137000 ng·h/mL, a Cmax [4, 18] of 18300 ng/mL and an AUC(0-t) [4, 18] of 193000 ng·h/mL. For the same molecule, the deaths (dog; dog, 10, 35, or 75 mg/kg/day, 14 days) was “No deaths were observed at any dose”, the findings (dog; dog, 35 or 75 mg/kg/day, oral, 14 days) was “emesis, liquid/loose feces, reduced food intake, and losses in body weight in some individuals” and the “mean exposures vs dose” value (dog; dog, Days 1 and 14) was “increased with dose in a broadly proportionate manner”. For the same molecule, the “Plasma concentration after 30 minutes” value ([5]; 30 min) was 30 min.: 1620 ng/mL, the “Plasma concentration after 120 minutes” value ([5]; 120 min) was 120 min.: 226 ng/mL and the Kp at 0.5 h ([5]; mouse, brain, sc, 30 min, read-out: Brain/Plasma ratio after 30 minutes) was 0.04. The Kp at 2 h ([5]; mouse, brain/plasma, sc, 120 min, read-out: Brain/Plasma ratio after 120 minutes) was 0.03, the “eye tissue level relative to AF27873” value ([6]; 10 and 30 mg/kg/day) was 3 fold lower and the concentration at 30 min ([6]; 10 mg/kg/day) was 3.84 µM. The concentration at 30 min ([6]; 30 mg/kg/day) was 9.91 µM, the “plasma to brain ratio” value ([6]; repeated administration) was “approximately 14” and the “induction of CYP2B6” value (CYP2B6) was “no potential for induction”.
